Key:
[1] = ASM-024 capsule stability study, NGI testing of fine particle mass (FPM); type: physicochemical; conditions: eight weeks at 40° C./75% RH
Description: (§1) For method development using the NGI method, size three HPMC capsules were hand filled with forty milligrams of micronized ASM-024. Three capsules were tested according to manufacturer's instructions using the following conditions: • Cup coating agent: 3% PEG400 with 0.1% F68 in acetone • Testing flow rate: 60 LPM • Testing volume: 4 L (4 second actuation) • Device: Miat Monodose Inhaler (standard resistance) • Sample diluent: 70% MeOH: 30% H2O (v/v) • Dilutions • Device—50 ml • Throat—50 ml • Pre-separator—100 ml • Stage 1—MOC—10 ml • Filter—50 ml
A two month study was performed at accelerated conditions with testing at two weeks, four weeks and eight weeks. Hand filled 40 mg capsules were packed in foil pouches with a 10 g desiccant pouch and heat sealed. Hand filled 40 mg capsules were also packed in foil pouches and heat sealed without a desiccant pouch. All heat seals were hand checked to ensure seal integrity. Pouches were placed on stability at 40° C./75% RH. NGI testing of the capsules stored without desiccant were conducted over the eight week study.

[2] = Particle size analysis (PSD), Malvern Mastersizer; type: physicochemical
Description: A 2 g sample of anhydrous crystalline ASM-024 was taken and fed through the Sturtevant Qualification Micronizer. The mill has a 2 inch chamber, and was operated at 80 psig grinding pressure and 90 psig feed pressure. Milled API was recovered from the exhaust filter sock and physically characterized.
Particle size analysis was performed using a Malvern Mastersizer with a Small Sample Presentation Unit. The dispersant used was ethyl acetate with 2 g of SPAN 85 per liter. Samples were prepared by sonicating 5 mg of sample in 2 ml of dispersant, the sample was then added dropwise to achieve 20% obscuration.
Magnesium stearate was blended with un-milled ASM-024 in two gram lots. Approximately one gram of ASM-024 was weighed into a 28 ml vial. The appropriate mass of magnesium stearate was then weighed on top of the API and the weight completed to two grams with ASM-024. The materials were blended using a Turbula T2F mixer at 101 rpm for ten minutes. The blended material was passed through the Sturtevant Qualification Micronizer and recovered from the filter sock.

LTD4-induced contraction = assay: Relaxant effect on LTD4-induced contraction
[3] = NGI aerosol testing, mass retained in device and capsule; type: physicochemical; conditions: 40 mg capsule fill weight, standard and high resistance Miat Monodose inhalers
Description: as §1
Aerosol performance and stability was assessed. Milled API was hand filled into size 3 HPMC capsules and size 3 gelatin capsules (40 mg capsule fill weight). NGI testing was performed in duplicate using standard resistance and high resistance Miat Monodose inhalers. […] The high resistance device has provided an increased FPM of ASM-024 from both HPMC and gelatin capsules.

[4] = PSD of ASM-024 prior to micronization
[5] = co-milled with 0.2 % w/w magnesium stearate
[6] = co-milled with 0.5 % w/w magnesium stearate
[7] = co-milled with 1.0 % w/w magnesium stearate
[8] = co-milled with 2.0 % w/w magnesium stearate
[9] = milled, 0.0 % magnesium stearate

## CC[N+]1(CC)CCCN(c2ccccc2)CC1 [ASM-024]
[1]; 40 mg capsules in foil pouches with 10 g desiccant pouch
  decrease in FPM: ~5.7%
[1]; 40 mg capsules in foil pouches without desiccant
  decrease in FPM: 10.9%
[2]; [4]
  d10: 13.92 μm
  d50: 41.67 μm
  d90: 91.89 μm
[2]; after one pass in jet air mill
  d10: 0.78 μm
  d50: 2.10 μm
  d90: 4.70 μm
[2]; [5]
  d10: 0.89 µm
  d50: 1.74 µm
  d90: 3.33 µm
[2]; [6]
  d10: 0.89 µm
  d50: 1.86 µm
  d90: 3.94 µm
[2]; [7]
  d10: 0.9 µm
  d50: 1.7 µm
  d90: 3.17 µm
[2]; [8]
  d10: 0.91 µm
  d50: 1.69 µm
  d90: 3.11 µm
[2]; [9]
  d10: 0.97 µm
  d50: 1.95 µm
  d90: 3.8 µm
LTD4-induced contraction
  relaxant effect on LTD4-induced contraction: no relaxant effect
[3]
  mass of ASM-024 retained in the device and capsule after NGI testing: less than 20 mg
